The results in this text go back to patent publication US11472843B2, “Malacidins and methods of use” (The Rockefeller University, priority 2017, dated 2022).

In assay [1] the test system is Candida albicans ATCC 1884. The assay is described as follows: MIC assay, C. albicans. In kind it is cell-based. As for the experimental part:
MIC assays were performed in duplicate in 96-well microtiter plates on the basis of the protocol recommended by the Clinical and Laboratory Standards Institute (Cockerill, 2012, Clinical and Laboratory Standards Institute). All presented data are the average of at least three independent assays. Stock solutions of malacidin or daptomycin (2 mg ml^−1 in H2O) were added to the first well in a row and serially diluted (twofold per transfer) across the microtiter plate. CaCl2 was supplemented to media at a final concentration of 15 mM and fetal bovine serum (ATCC) was added to media (1:10) to test the effect of serum. Overnight cultures of bacteria were diluted 5,000-fold, and 50 μl was used as an inoculum in each well. MIC values were determined by visual inspection after 18 h incubation (30° C., static growth). For the enhanced calcium titration experiments, standard MIC assays were performed with methicillin-resistant Staphylococcus aureus (MRSA) PFGE strain type USA300 in media supplemented with CaCl2 at: 25.0, 18.8, 14.1, 7.03, 3.52, 2.50, 1.76, 0.880, 0.440, 0.250 and 0 mM. To assess the effects of monovalent and divalent cations on malacidin activity, standard MIC assays were performed with MRSA USA300 in media supplemented with 15 mM CaCl2, MgCl2, MnCl2, ZnCl2, SrCl2, NaCl and KCl. To evaluate the effects of pulmonary surfactants on activity against a community-acquired pneumonia-causing pathogen, standard MIC assays were performed with Streptococcus pneumoniae TCH8431 in media supplemented with both 15 mM […] and Survanta (beractant) at a final concentration of 5, 1, 0.5, 0.25 or 0% (volume/volume (v/v) percent).

Assay [2] deals with MRSA USA300. The assay is described as follows: Membrane depolarization assay (DiBAC4). In kind it is cell-based, Staphylococcus aureus. The settings on record: S. aureus cells pretreated with DiBAC4; 20 μg ml^−1. On the procedure: The effects of malacidin on membrane integrity was assessed using SYTOX green. In brief, single colonies of MRSA USA300 were grown in LB media with and without 15 mM CaCl2 to an OD600 nm of 0.35. Nine hundred microlitres of cells were mixed with 100 μL of 17 μM SYTOX green dye (Thermo Fisher). The resulting mixture was incubated for 5 min at 22° C., and then distributed to a microtiter plate at 50 μl per well. An initial reading of fluorescence pre-antibiotic addition was measured at excitation and emission wavelengths of 488 nm and 523 nm, respectively. Fifty microlitres of antibiotics was added to respective wells at a final concentration of 20 μg ml^−1. Measurements were immediately collected for 10 min. To assess the effects of malacidin on membrane depolarization, similar assays were set up using the membrane potential probe, DiBAC4 (bis-(1,3-dibutylbarbituric acid)trimethine oxonol). Single colonies of MRSA USA300 were grown in LB media with and without 15 mM CaCl2 to an OD600 nm of 0.35. Nine hundred microlitres of cells were mixed with 100 μl of 20 μg ml DiBAC4dye (Thermo Fisher). The resulting mixture was incubated for 5 min at 22° C., and then distributed to a microtiter plate at 50 μl per well. An initial reading of fluorescence pre-antibiotic addition was measured at excitation and emission wavelengths of 492 nm and 515 nm, respectively. […]

For assay [3], the system named is MRSA USA300. The assay is described as follows: Membrane leakage assay (SYTOX green). Conditions: 20 μg ml^−1. Format: cell-based, Staphylococcus aureus. On the procedure: The effects of malacidin on membrane integrity was assessed using SYTOX green. In brief, single colonies of MRSA USA300 were grown in LB media with and without 15 mM CaCl2 to an OD600 nm of 0.35. Nine hundred microlitres of cells were mixed with 100 μL of 17 μM SYTOX green dye (Thermo Fisher). The resulting mixture was incubated for 5 min at 22° C., and then distributed to a microtiter plate at 50 μl per well. An initial reading of fluorescence pre-antibiotic addition was measured at excitation and emission wavelengths of 488 nm and 523 nm, respectively. Fifty microlitres of antibiotics was added to respective wells at a final concentration of 20 μg ml^−1. Measurements were immediately collected for 10 min. To assess the effects of malacidin on membrane depolarization, similar assays were set up using the membrane potential probe, DiBAC4 (bis-(1,3-dibutylbarbituric acid)trimethine oxonol). Single colonies of MRSA USA300 were grown in LB media with and without 15 mM CaCl2 to an OD600 nm of 0.35. Nine hundred microlitres of cells were mixed with 100 μl of 20 μg ml DiBAC4dye (Thermo Fisher). The resulting mixture was incubated for 5 min at 22° C., and then distributed to a microtiter plate at 50 μl per well. An initial reading of fluorescence pre-antibiotic addition was measured at excitation and emission wavelengths of 492 nm and 515 nm, respectively. Fifty microlitres of antibiotics was added to respective wells at a final concentration of 20 μg ml^−1. Measurements were immediately collected for 10 min. Representative examples from three technical replicates are shown.

The nature of assay [4]: Complex formation with cell wall precursors (TLC mobility shift), lipid II. In kind it is binding. On the procedure: Binding of malacidin to C55-P and lipid II was evaluated by incubating 1 nmol of each purified precursor with 0.5 nmol of malacidin or daptomycin in 100 mM Tris-HCl, pH 7.5, 0.1% Triton X-100, 13 mM MgCl2, and with or without 25 mM CaCl2, for 60 min at 37° C. Subsequently, the mixture was extracted twice with n-BuOH/6 M pyridinium acetate buffer, pH 4.2 (3:1, v/v). The butanol fraction was evaporated and the residue was dissolved in CHCl3/methanol (1:1, v/v). The resuspension was analysed for the loss of unbound malacidin or daptomycin to a complex by TLC analysis using chloroform/methanol/water/ammonia (88:48:10:1, v/v/v/v) as the solvent and detection by 254/366 nm visualization. Experiments were performed with biological replicates.

For assay [5], the system named is Methicillin-resistant Staphylococcus aureus strain MW2. Kind of assay: Rat cutaneous wound infection model. In kind it is in vivo, Sprague Dawley rats. The settings on record: topical, 0.5 mg daily in 25 mM CaCl2. As for the experimental part: Methicillin-resistant Staphylococcus aureus strain MW2 was grown in Mueller Hinton broth at 37° C. with shaking overnight. The culture was centrifuged, supernatant aspirated and the bacteria were gently washed once in sterile saline. The optical density was determined at 600 nm. The bacterial suspension was diluted to provide a challenge inoculum of approximately 500 CFU per wound in a volume of 0.05 ml in sterile 0.9% NaCl. The inoculum count was verified by viable counts on Mannitol Salt Agar plates spread with proper dilutions of the inoculum and incubated at 37° C. for 24-48 h. For the wound infection model, 8-week-old male (˜200 g) Sprague Dawley rats were given two wounds each. Two rats were used at each time point (day 1 and day 3) for each treatment group for a total of 4 rats (8 wounds) per drug. This sample size was statistically calculated on the basis of previous in-house wound burden studies comparing vehicle-treated groups with antibiotic controls. Rats were randomly selected into the treatment groups. […] At 1 day and 3 days post infection, the rats were humanely euthanized and wounds were excised and assessed for bacterial burdens by plating on MSA. […] Abnormal clinical signs were recorded if observed.

malacidin A: the MIC was over 100 μg m1^−1 in assay [1] (C. albicans, 15 mM CaCl2) and over 100 µg/mL in assay [1] (Candida albicans ATCC 1884). The “Loss of membrane potential (DiBAC4)” value in the assay with MRSA USA300 [2] is recorded as “no significant loss of membrane potential”. For the same substance, in the assay with MRSA USA300 [3] (absence of calcium supplementation), the “Membrane leakage (SYTOX green or DiBAC4)” value is “No membrane leakage”. In the assay with MRSA USA300 [3] (with calcium (15 mM CaCl2)), the “Membrane leakage (SYTOX green fluorescence)” value is “does not cause MRSA membrane leakage”. Besides, in assay [4] (1 nmol precursor, 0.5 nmol antibiotic), the “Lipid-II-binding activity (TLC mobility shift)” value is “lipid-II-dependent disappearance of the malacidin band”. Also, the “Calcium dependence of the interaction with lipid II” value in assay [4] (with or without 25 mM CaCl2) is “calcium-dependent”. The “Bacterial burden in the wounds” value in assay [5] (24 hours post infection) and in assay [5] (72 hours post infection) was “no observed bacterial burdens” in each case.
